# Experimental data taken from PubChem BioAssay (NCI).
#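 Each compound was tested at five concentrations against cells in 96-well plates for 48 hours. TGI denotes the concentration required for complete inhibition of growth.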
# What was measured:
# Test in all cases: DTP human tumour cell line panel, 48 h
# SNB-19 CNS = system: SNB-19 CNS
# A498 renal = system: A498 renal
# SF-539 CNS = system: SF-539 CNS
# EKVX NSCLC = system: EKVX NSCLC
# SK-MEL-28 melanoma = system: SK-MEL-28 melanoma
# SK-MEL-2 melanoma = system: SK-MEL-2 melanoma
# 786-0 renal = system: 786-0 renal
# SF-268 CNS = system: SF-268 CNS
# UACC-257 melanoma = system: UACC-257 melanoma
# U251 CNS = system: U251 CNS
# HCT-15 colon = system: HCT-15 colon
# NCI-H23 lung = system: NCI-H23 lung
# T-47D breast = system: T-47D breast
# UO-31 renal = system: UO-31 renal
# ACHN renal = system: ACHN renal
# RXF 393 renal = system: RXF 393 renal
# HT29 colon = system: HT29 colon
# BT-549 breast = system: BT-549 breast
# SK-MEL-5 melanoma = system: SK-MEL-5 melanoma
# HS 578T breast = system: HS 578T breast
# SF-295 CNS = system: SF-295 CNS
# HL-60(TB) leukemia = system: HL-60(TB) leukemia
# NCI-H226 lung = system: NCI-H226 lung
# SW-620 colon = system: SW-620 colon
# OVCAR-3 ovarian = system: OVCAR-3 ovarian
# NCI-H522 lung = system: NCI-H522 lung
# HOP-92 NSCLC = system: HOP-92 NSCLC
# MALME-3M melanoma = system: MALME-3M melanoma
# DU-145 prostate = system: DU-145 prostate
# MCF7 breast = system: MCF7 breast
# LOX IMVI melanoma = system: LOX IMVI melanoma
# HCT-116 colon = system: HCT-116 colon
# K-562 leukemia = system: K-562 leukemia
# KM12 colon = system: KM12 colon
# CAKI-1 renal = system: CAKI-1 renal
# MDA-N = system: MDA-N
# UACC-62 melanoma = system: UACC-62 melanoma
# COLO 205 colon = system: COLO 205 colon
# PC-3 prostate = system: PC-3 prostate
# M14 melanoma = system: M14 melanoma
# OVCAR-4 ovarian = system: OVCAR-4 ovarian
# TK-10 renal = system: TK-10 renal
# A549 NSCLC = system: A549 NSCLC
# MDA-MB-231 breast = system: MDA-MB-231 breast
# OVCAR-8 ovarian = system: OVCAR-8 ovarian
# MDA-MB-435 = system: MDA-MB-435
# SN12C renal = system: SN12C renal
# IGROV1 ovarian = system: IGROV1 ovarian
# HOP-62 NSCLC = system: HOP-62 NSCLC
# NCI/ADR-RES ovarian = system: NCI/ADR-RES ovarian
# CCRF-CEM leukemia = system: CCRF-CEM leukemia
# RPMI-8226 leukemia = system: RPMI-8226 leukemia
# OVCAR-5 ovarian = system: OVCAR-5 ovarian
# HCC-2998 colon = system: HCC-2998 colon
compound,measurement,setting,value
CC(C)(C)OC(=O)NCC(c1c[nH]c2ccc(Br)cc12)c1c[nH]c2ccc(Br)cc12,TGI,SNB-19 CNS,23.3 µM
same,TGI,A498 renal,29.1 µM
same,TGI,SF-539 CNS,27.8 µM
same,TGI,EKVX NSCLC,15.2 µM
same,TGI,SK-MEL-28 melanoma,34.9 µM
same,TGI,SK-MEL-2 melanoma,22.3 µM
same,TGI,786-0 renal,13.2 µM
same,TGI,SF-268 CNS,25.6 µM
same,TGI,UACC-257 melanoma,25.6 µM
same,TGI,U251 CNS,19.1 µM
same,TGI,HCT-15 colon,20.8 µM
same,TGI,NCI-H23 lung,14.5 µM
same,TGI,T-47D breast,32.9 µM
same,TGI,UO-31 renal,19.6 µM
same,TGI,ACHN renal,18.1 µM
same,TGI,RXF 393 renal,25.7 µM
same,TGI,HT29 colon,12.2 µM
same,TGI,BT-549 breast,24.8 µM
same,TGI,SK-MEL-5 melanoma,19 µM
same,TGI,HS 578T breast,47.7 µM
same,TGI,SF-295 CNS,21.9 µM
same,TGI,HL-60(TB) leukemia,37.1 µM
same,TGI,NCI-H226 lung,36.7 µM
same,TGI,SW-620 colon,24.9 µM
same,TGI,OVCAR-3 ovarian,17.2 µM
same,TGI,NCI-H522 lung,25.2 µM
same,TGI,HOP-92 NSCLC,19.4 µM
same,TGI,MALME-3M melanoma,33.3 µM
same,TGI,DU-145 prostate,27.7 µM
same,TGI,MCF7 breast,22 µM
same,TGI,LOX IMVI melanoma,22.7 µM
same,TGI,HCT-116 colon,13.8 µM
same,TGI,K-562 leukemia,> 100 µM
same,TGI,KM12 colon,19.4 µM
same,TGI,CAKI-1 renal,24.5 µM
same,TGI,MDA-N,21.2 µM
same,TGI,UACC-62 melanoma,23.1 µM
same,TGI,COLO 205 colon,16.2 µM
same,TGI,PC-3 prostate,11.8 µM
same,TGI,M14 melanoma,12.6 µM
same,TGI,OVCAR-4 ovarian,25.9 µM
same,TGI,TK-10 renal,25.2 µM
same,TGI,A549 NSCLC,17.2 µM
same,TGI,MDA-MB-231 breast,32.1 µM
same,TGI,OVCAR-8 ovarian,45.6 µM
same,TGI,MDA-MB-435,28.7 µM
same,TGI,SN12C renal,18.1 µM
same,TGI,IGROV1 ovarian,17.3 µM
same,TGI,HOP-62 NSCLC,27.3 µM
same,TGI,NCI/ADR-RES ovarian,23.1 µM
same,TGI,CCRF-CEM leukemia,71.1 µM
same,TGI,RPMI-8226 leukemia,> 100 µM
same,TGI,OVCAR-5 ovarian,20.2 µM
same,TGI,HCC-2998 colon,18 µM
